Results published in article PMC5663706, “Diversity oriented biosynthesis via accelerated evolution of modular gene clusters” (Nature Communications, 2017).

What was measured:
[1] = system: human macrophages challenged with B. pseudomallei; format: cell-based
FKBP12 = FKBP12 (Homo sapiens, UniProt P62942); assay: FKBP12 PPIase inhibition assay; format: biochemical; conditions: 10 °C, pH 8.0, 6 nM FKBP12, 60 µM SUC-ALPF-pNA, read-out: FKBP12 K i
[2] = system: mTORC1 pathway (p-S6 formation)
Saccharomyces cerevisiae = Saccharomyces cerevisiae MIC assay (microdilution); format: cell-based; conditions: RPMI 1640 broth, 37 °C, 24 h, read-out: S. cerevisiae MIC
Description: We additionally assessed the rapalogs for antifungal activity using a standard Saccharomyces cerevisiae MIC assay. As expected, activity was similar to that observed for the mTORC1 pathway assay, likely through inhibition of TOR1 and TOR2.
Minimum Inhibitory Concentration (MIC) values for each compound were determined using the microdilution method. Briefly, stock solutions of the 6 test rapalogs (6.4 mg mL^−1 in methanol) were diluted 1:50 in RPMI 1640 broth (Sigma-Aldrich) to a working concentration of 128 µg ml^−1, and serially diluted in broth (1:2) in sterile, polypropylene 96-well plates, 100 µL per well. Saccharomyces cerevisiae was cultured in RPMI 1640 broth, 37 °C, 250 r.p.m., 18 h. […] A volume of 100 µL aliquots of this dilution were added to each well and mixed by gentle trituration. Plates were incubated at 37 °C for 24 h. The concentration of compound at which no visible growth was apparent was determined to be the MIC.

FKBP12, sequence (P62942 whole entry, species assumed): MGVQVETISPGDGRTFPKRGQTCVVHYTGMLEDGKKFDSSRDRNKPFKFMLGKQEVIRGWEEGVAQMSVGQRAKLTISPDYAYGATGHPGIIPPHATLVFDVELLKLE

| SMILES | survival of human macrophages challenged with B. pseudomallei [1] | Ki (FKBP12) [nM] | IC50 [2] [nM] | MIC (Saccharomyces cerevisiae) [µg/mL] |
| --- | --- | --- | --- | --- |
| COC1CC2CCC(C)C(O)(O2)C(=O)C(=O)N2CCCCC2C(=O)OC(C(C)CC2CCC(O)CC2)CC=C(C)C(O)CC(=O)C(C)CC(C)C=CC=CC=C1C (stereo not shown) [Compound 7] | increase the survival | 7.9 | 100 | < 2 |
| C\C1=C/C=C/C=C/[C@@H](C)C[C@@H](C)C(=O)[C@H]2CC[C@@H](CC2)OC(=O)[C@@H]2CCCCN2C(=O)C(=O)[C@]2(O)O[C@@H](CC[C@H]2C)C[C@@H]1O [Compound 3] |  | 460 | > 1900 | > 64 |
| COC(CC1CCC(C)C(O)(CC(=O)N2CCCCC2C(=O)O)O1)C(C)=CC=CC=CC(C)CC1CCC(O)CC1 (stereo not shown) [Compound 2] |  | > 1000 | 1000 | > 64 |
| COC1CC2CCC(C)C(O)(CC(=O)N3CCCCC3C(=O)OC(C(C)CC3CCC(O)CC3)CC(=O)C(C)CC(C)C=CC=CC=C1C)O2 (stereo not shown) [Compound 5] |  | 370 | 300 | < 64 |
| CO[C@H]1C[C@@H]2CC[C@@H](C)[C@@](O)(O2)C(=O)C(=O)N2CCCC[C@H]2C(=O)O[C@H]([C@H](C)C[C@@H]2CC[C@@H](O)[C@H](OC)C2)CC(=O)[C@H](C)/C=C(\C)[C@@H](O)[C@@H](OC)C(=O)[C@H](C)C[C@H](C)/C=C/C=C/C=C/1C [Rapamycin, reference compound] |  |  | < 1 | < 0.25 |
| CO[C@H]1C[C@@H]2CC[C@@H](C)[C@@](O)(O2)C(=O)C(=O)N2CCCC[C@H]2C(=O)O[C@H]([C@H](C)C[C@H]2CC[C@H](O)CC2)CC(O)CC(=O)[C@H](C)/C=C(\C)[C@@H](O)CC(=O)[C@H](C)C[C@H](C)/C=C/C=C/C=C/1C (stereo partly shown) [Compound 8] |  | 6.5 |  | < 2 |
| COC1CC2CCC(C)C(O)(O2)C(=O)C(=O)N2CCCCC2C(=O)OC(C(C)CC2CCC(O)CC2)CC(=O)C(C)C=C(C)C(O)C(OC)C(=O)C(C)CC(C)C=CC=CC=C1C (stereo not shown) [Compound 1, 39-desmethoxyrapamycin] |  | 2.5 |  | < 0.25 |
